Experimental data from patent US4409314A, “Light-sensitive compounds, light-sensitive mixture, and light-sensitive copying material prepared therefrom” (Hoechst Aktiengesellschaft, priority 1980, dated 1983).
Read-outs that look alike come from different tables or passages of the source.

Assays:
[1] = type: physicochemical; details: for Solubility (%): 4320 min; for Appearance of solution in ethylene glycol monomethyl ether: no precipitations even after 3 days
Protocol: (§1) In each case, 1 to 4 g of crystalline diazo compound were stirred in 25 g of ethylene glycol monomethyl ether, which is the most important solvent in coating technology, for 2 hours at room temperature and the mixture was allowed to stand for a further 70 hours without stirring, in order to complete the crystallization of possible amorphous constituents. The mixture was then filtered off with suction, and the filter residue was washed successively with 10 ml of methanol and 10 ml of ether, dried in vacuo, and its weight was determined. The solubilities in ethylene glycol monomethyl ether, listed in Table 3, were calculated from the difference relative to the quantity employed.

[2] = Solubility in n-butyl acetate; type: physicochemical; details: 1 g crystalline diazo compound stirred 2 hours in 25 g n-butyl acetate
Protocol: as §1
In a further widely used solvent, namel
1 g of the crystalline diazo compound was stirred for 2 hours in 25 g of
nbutyl acetate. The mixtures were then worked up as in Example 1.

[3] = 3 g of compound in 25 g solvent

Structure (SMILES) | Solubility (%) [1] [%] | further results
CC(CC(=O)c1ccc(OS(=O)(=O)C2=CC(=[N+]=[N-])C(=O)c3ccccc32)cc1OS(=O)(=O)C1=CC(=[N+]=[N-])C(=O)c2ccccc21)CC(C)(C)C (stereo not shown) [Compound 6] | 10.5 | –
CCCCC(=O)c1ccc(OS(=O)(=O)c2cccc3c2C=CC(=[N+]=[N-])C3=O)cc1OS(=O)(=O)c1cccc2c1C=CC(=[N+]=[N-])C2=O [Compound 2] | > 10.7 | Appearance of solution in ethylene glycol monomethyl ether [1, 3]: clear
CCCCC(CC)C(=O)c1ccc(OS(=O)(=O)C2=CC(=[N+]=[N-])C(=O)c3ccccc32)cc1OS(=O)(=O)C1=CC(=[N+]=[N-])C(=O)c2ccccc21 (stereo not shown) [Compound 4] | 4.3 | –
CCCCCCCCCCCCCCCC(=O)c1ccc(OS(=O)(=O)c2cccc3c2C=CC(=[N+]=[N-])C3=O)cc1OS(=O)(=O)c1cccc2c1C=CC(=[N+]=[N-])C2=O [Compound 7] | – | Solubility (%) in butyl acetate [2]: 1.03%
CC(=O)c1ccc(OS(=O)(=O)c2cccc3c2C=CC(=[N+]=[N-])C3=O)cc1OS(=O)(=O)c1cccc2c1C=CC(=[N+]=[N-])C2=O [Compound 1] | 1.03 | –
CCCCC(CC)C(=O)c1ccc(OS(=O)(=O)c2cccc3c2C=CC(=[N+]=[N-])C3=O)cc1OS(=O)(=O)c1cccc2c1C=CC(=[N+]=[N-])C2=O (stereo not shown) [Compound 3] | > 13.8 | Appearance of solution in ethylene glycol monomethyl ether ([1]; 4 g of compound in 25 g solvent): clear
CCCCCCCCCCCCCCCC(=O)c1ccc(OS(=O)(=O)C2=CC(=[N+]=[N-])C(=O)c3ccccc32)cc1OS(=O)(=O)C1=CC(=[N+]=[N-])C(=O)c2ccccc21 [Compound 8] | – | Solubility (%) in butyl acetate [2]: 1.75%
CC(CC(=O)c1ccc(OS(=O)(=O)c2cccc3c2C=CC(=[N+]=[N-])C3=O)cc1OS(=O)(=O)c1cccc2c1C=CC(=[N+]=[N-])C2=O)CC(C)(C)C (stereo not shown) [Compound 5] | > 10.7 | Appearance of solution in ethylene glycol monomethyl ether [1, 3]: clear

Further lines, with some results ahead:

Solubility (%) [1] [%] | Structure (SMILES) | further results
3.7 | CCOCCOC(=O)c1ccc(OS(=O)(=O)C2=CC(=[N+]=[N-])C(=O)c3ccccc32)c(OS(=O)(=O)C2=CC(=[N+]=[N-])C(=O)c3ccccc32)c1 [Compound 15] | –
0.87 | COC(=O)c1ccc(OS(=O)(=O)c2cccc3c2C=CC(=[N+]=[N-])C3=O)cc1OS(=O)(=O)c1cccc2c1C=CC(=[N+]=[N-])C2=O [Compound 10] | –
4.6 | CCCCCCCCCCCCOC(=O)c1cc(OS(=O)(=O)c2cccc3c2C=CC(=[N+]=[N-])C3=O)cc(OS(=O)(=O)c2cccc3c2C=CC(=[N+]=[N-])C3=O)c1 [Compound 18] | –
7.5 | CCCCCCCCCCCCOC(=O)c1ccc(OS(=O)(=O)c2cccc3c2C=CC(=[N+]=[N-])C3=O)cc1OS(=O)(=O)c1cccc2c1C=CC(=[N+]=[N-])C2=O [Compound 17] | Solubility (%) in butyl acetate [2]: 2.03%
4.7 | CC(C)CCOC(=O)c1ccc(OS(=O)(=O)c2cccc3c2C=CC(=[N+]=[N-])C3=O)c(OS(=O)(=O)c2cccc3c2C=CC(=[N+]=[N-])C3=O)c1 [Compound 13] | –
5.0 | CCOCCOC(=O)c1cc(OS(=O)(=O)c2cccc3c2C=CC(=[N+]=[N-])C3=O)cc(OS(=O)(=O)c2cccc3c2C=CC(=[N+]=[N-])C3=O)c1 [Compound 16] | –
1.0 | [N-]=[N+]=C1C=Cc2c(cccc2S(=O)(=O)Oc2ccc(C(=O)c3ccccc3)c(OS(=O)(=O)c3cccc4c3C=CC(=[N+]=[N-])C4=O)c2OS(=O)(=O)c2cccc3c2C=CC(=[N+]=[N-])C3=O)C1=O [V, tris-1,2-naphthoquinone-2-diazide-5-sulfonic acid ester of 2,3,4-trihydroxy-benzophenone, reference compound] | Solubility (%) in butyl acetate [2]: 0.50%
4.3 | CCOCCOC(=O)c1ccc(OS(=O)(=O)c2cccc3c2C=CC(=[N+]=[N-])C3=O)c(OS(=O)(=O)c2cccc3c2C=CC(=[N+]=[N-])C3=O)c1 [Compound 14] | –
2.3 | CC(C)CCOC(=O)c1ccc(OS(=O)(=O)C2=CC(=[N+]=[N-])C(=O)c3ccccc32)cc1OS(=O)(=O)C1=CC(=[N+]=[N-])C(=O)c2ccccc21 [Compound 11] | –
